In US20230131535A1, “ARYLMETHYLENE AROMATIC COMPOUNDS AS Kv1.3 POTASSIUM SHAKER CHANNEL BLOCKERS” (D. E. Shaw Research, LLC, priority 2019, published 2023):
Read-outs that look alike come from different tables or passages of the source.

How the values were obtained:
Kv1.3 potassium channel = biological target: T1, Kv1.3 potassium channel (Homo sapiens, UniProt P22001); assay: Kv1.3 potassium channel blocker activity, automated whole-cell patch clamp (Patchliner); format: cell-based; conditions: CHO-K1 cells stably expressing Kv1.3, whole cell current, pulses -90 mV to +40 mV, read-out: Kv1.3_IC50
T1 construct: expressed in transfected cells
Method: Example 67. Evaluation of Kv1.3 Potassium Channel Blocker Activities
The assay described below is used to evaluate the disclosed compound's activities as Kv1.3 potassium channel blockers.
CHO-K1 cells stably expressing Kv1.3 were grown in DMEM containing 10% heat-inactivated FBS, 1 mM Sodium Pyruvate, 2 mM L-Glutamine and G418 (500 μg/ml). Cells were grown in culture flasks at 37° C. in a 5% CO2-humidified incubator.
(§1) The cells were bathed in an extracellular solution containing 140 mM NaCl, 4 mM KCl, 2 mM CaCl2), 1 mM MgCl2, 5 mM Glucose, 10 mM HEPES; pH adjusted to 7.4 with NaOH; 295-305 mOsm. The internal solution contained 50 mM KCl, 10 mM NaCl, 60 mM KF, 20 mM EGTA, 10 mM HEPES; pH adjusted to 7.2 with KOH; 285 mOsm. All compounds were dissolved in DMSO at 30 mM. Compound stock solutions were freshly diluted with external solution to concentrations of 30 nM, 100 nM, 300 nM, 1 μM, 3 μM, 10 μM, 30 μM and 100 μM. The highest content of DMSO (0.3%) was present in 100 μM.
The currents were evoked by applying 100 ms depolarizing pulses from −90 mV (holding potential) to +40 mV were applied with 0.1 Hz frequency. Control (compound-free) and compound pulse trains for each compound concentration applied contained 20 pulses. 10 second breaks were used between pulse trains (see Table 4 below).
Whole cell current recordings and compound application were enabled by means of an automated patch clamp platform Patchliner (Nanion Technologies GmbH). EPC 10 patch clamp amplifier (HIEKA Elektronik Dr. Schulze GmbH) along with Patchmaster software (HIEKA Elektronik Dr. Schulze GmbH) was used for data acquisition. Data were sampled at 10 kHz without filtering. Passive leak currents were subtracted online using a P/4 procedure (HEKA Elektronik Dr. Schulze GmbH). Increasing compound concentrations were applied consecutively to the same cell without washouts in between. Total compound incubation time before the next pulse train was not longer than 10 seconds. Peak current inhibition was observed during compound equilibration.
(§2) AUC and peak values were obtained with Patchmaster (HEKA Elektronik Dr. Schulze GmbH). To determine IC50, the last single pulse in the pulse train corresponding to a given compound concentration was used. Obtained AUC and peak values in the presence of compound were normalized to control values in the absence of compound. Using Origin (OridinLab), IC50 was derived from data fit to Hill equation: Icompound/Icontrol=(100−A)/(1+([compound]/IC50)nH)+A, where IC50 value is the concentration at which current inhibition is half-maximal, [compound] is the applied compound concentration, A is the fraction of current that is not blocked and nH is the Hill coefficient.

hERG channel = biological target: T2, hERG channel (Homo sapiens, UniProt Q12809); assay: hERG electrophysiology, automated whole-cell patch clamp (Patchliner); format: cell-based; conditions: CHO-K1 cells stably expressing hERG, whole cell current, tail current protocol, read-out: hERG_IC50
T2 construct: expressed in transfected cells
Method: Example 68. Evaluation of hERG Activities
This assay is used to evaluate the disclosed compounds' inhibition activities against the hERG channel.
CHO-K1 cells stably expressing hERG were grown in Ham's F-12 Medium with Glutamine containing 10% heat-inactivated FBS, 1% Penicillin/Streptomycin, Hygromycin (100 μg/ml) and G418 (100 μg/ml). Cells were grown in culture flasks at 37° C. in a 5% CO2-humidified incubator.
as §1
The voltage protocol (see Table 5) was designed to simulate voltage changes during a cardiac action potential with a 300 ms depolarization to +20 mV (analogous to the plateau phase of the cardiac action potential), a repolarization for 300 ms to −50 mV (inducing a tail current) and a final step to the holding potential of −80 mV. The pulse frequency was 0.3 Hz. Control (compound-free) and compound pulse trains for each compound concentration applied contained 70 pulses.
Whole cell current recordings and compound application were enabled by means of an automated patch clamp platform Patchliner (Nanion). EPC 10 patch clamp amplifier (HEKA) along with Patchmaster software (HEKA Elektronik Dr. Schulze GmbH) was used for data acquisition. Data were sampled at 10 kHz without filtering. Increasing compound concentrations were applied consecutively to the same cell without washouts in between.
as §2, with “PEAK” for “peak”, “IC50” for “IC50,”, “IC50” for “IC50 value”

T1 sequence (P22001 whole entry): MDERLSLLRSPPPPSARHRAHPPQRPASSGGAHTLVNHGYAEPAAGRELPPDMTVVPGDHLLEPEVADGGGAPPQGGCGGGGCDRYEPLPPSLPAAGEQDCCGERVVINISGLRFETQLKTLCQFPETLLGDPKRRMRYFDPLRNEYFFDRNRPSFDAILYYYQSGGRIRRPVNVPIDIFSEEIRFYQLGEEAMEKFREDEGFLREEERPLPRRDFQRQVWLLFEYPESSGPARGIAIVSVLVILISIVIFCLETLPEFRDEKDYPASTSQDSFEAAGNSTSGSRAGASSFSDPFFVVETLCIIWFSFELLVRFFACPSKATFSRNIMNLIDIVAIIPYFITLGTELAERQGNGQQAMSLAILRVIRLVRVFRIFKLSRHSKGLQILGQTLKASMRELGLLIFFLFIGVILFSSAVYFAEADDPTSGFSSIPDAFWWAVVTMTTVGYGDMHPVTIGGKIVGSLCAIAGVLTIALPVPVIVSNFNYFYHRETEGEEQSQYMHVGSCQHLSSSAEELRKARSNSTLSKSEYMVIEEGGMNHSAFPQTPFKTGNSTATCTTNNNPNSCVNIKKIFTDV
T2 sequence (Q12809 whole entry): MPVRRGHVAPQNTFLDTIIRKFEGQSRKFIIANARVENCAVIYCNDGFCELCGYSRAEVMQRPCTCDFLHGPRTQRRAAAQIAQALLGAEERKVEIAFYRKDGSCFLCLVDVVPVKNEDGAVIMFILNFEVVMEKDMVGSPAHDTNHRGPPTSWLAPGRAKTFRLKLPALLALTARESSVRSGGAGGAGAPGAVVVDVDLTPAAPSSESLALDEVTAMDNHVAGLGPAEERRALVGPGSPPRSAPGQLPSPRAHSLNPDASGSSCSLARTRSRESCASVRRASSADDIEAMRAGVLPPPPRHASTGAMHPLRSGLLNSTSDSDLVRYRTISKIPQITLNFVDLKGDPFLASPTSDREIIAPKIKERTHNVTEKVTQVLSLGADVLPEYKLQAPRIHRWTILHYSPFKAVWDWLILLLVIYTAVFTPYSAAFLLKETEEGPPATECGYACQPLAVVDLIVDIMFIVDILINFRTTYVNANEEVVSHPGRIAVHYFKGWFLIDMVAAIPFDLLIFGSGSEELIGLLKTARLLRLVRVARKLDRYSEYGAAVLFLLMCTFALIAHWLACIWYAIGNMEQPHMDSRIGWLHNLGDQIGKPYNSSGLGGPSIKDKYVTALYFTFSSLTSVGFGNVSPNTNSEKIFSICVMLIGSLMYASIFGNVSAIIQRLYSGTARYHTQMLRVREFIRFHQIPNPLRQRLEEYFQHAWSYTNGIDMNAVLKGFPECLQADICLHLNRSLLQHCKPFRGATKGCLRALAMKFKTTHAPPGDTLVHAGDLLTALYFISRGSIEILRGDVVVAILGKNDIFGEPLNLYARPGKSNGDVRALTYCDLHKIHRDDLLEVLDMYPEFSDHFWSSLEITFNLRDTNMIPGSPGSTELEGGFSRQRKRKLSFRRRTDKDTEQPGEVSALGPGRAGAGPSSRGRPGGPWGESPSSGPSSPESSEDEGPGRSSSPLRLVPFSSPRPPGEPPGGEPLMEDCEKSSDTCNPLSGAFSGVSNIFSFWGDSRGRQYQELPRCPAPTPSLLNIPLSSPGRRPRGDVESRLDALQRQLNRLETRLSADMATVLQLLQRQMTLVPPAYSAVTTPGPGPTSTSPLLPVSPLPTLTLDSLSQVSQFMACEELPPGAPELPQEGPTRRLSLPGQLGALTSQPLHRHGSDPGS

IC50 (Kv1.3 potassium channel; Table 7)	IC50 (Kv1.3 potassium channel; Table 6)	SMILES	IC50 (hERG channel; Table 7)	IC50 (hERG channel; Table 6)
< 1 µM	–	C[C@H](NC(=O)C1CNC1)c1c(O)ccc(Cl)c1Cl [Compound 76, N-[(1S)-1-(2,3-dichloro-6-hydroxyphenyl)ethyl]azetidine-3-carboxamide]	> 30 µM	–
–	< 1 µM	O=C(N[C@H](c1ccncc1)c1c(O)ccc(Cl)c1Cl)[C@@H]1CCCN1 (single isomer, unassigned) [Compound 68]	–	< 30 µM
–	< 1 µM	Cc1cnccc1C(O)c1c(O)ccc(Cl)c1Cl (single isomer, unassigned) [Compound 46, 3,4-dichloro-2-[hydroxy(3-methylpyridin-4-yl)methyl]phenol]	–	> 30 µM
< 1 µM	–	C[C@@H](NC(=O)[C@H]1CCCNC1)c1c(O)ccc(Cl)c1Cl [Compound 78, (3S)-N-[(1R)-1-(2,3-dichloro-6-hydroxyphenyl)ethyl]piperidine-3-carboxamide]	> 30 µM	–
–	< 1 µM	CC(=O)NC(c1ccncc1)c1c(O)ccc(Cl)c1Cl (single isomer, unassigned) [Compound 41, N-((2,3-dichloro-6-hydroxyphenyl)(pyridin-4-yl)methyl)acetamide]	–	> 30 µM
–	< 1 µM	Nc1cc(C(O)c2c(O)ccc(Cl)c2Cl)ccn1 (single isomer, unassigned) [Compound 45, 2-[(2-aminopyridin-4-yl)(hydroxy)methyl]-3,4-dichlorophenol]	–	> 30 µM
< 1 µM	–	CC(NC(=O)C1CNC1)c1c(O)ccc(Br)c1Cl (stereo in doubt) [Compound 91, N-[(1R)-1-3-bromo-2-chloro-6-hydroxyphenyl) ethyl]azetidine-3-carboxamide]	> 30 µM	–
< 1 µM	–	Cc1cc(O)c([C@H](N)CNC(=O)C2CNC2)cc1Cl [Compound 94, N-[(2S)-2-amino-2-(5-chloro-2-hydroxy-4-methylphenyl)ethyl]azetidine-3-carboxamide]	> 30 µM	–

More lines, now with the values behind:

SMILES	IC50 (Kv1.3 potassium channel; Table 7)	IC50 (Kv1.3 potassium channel; Table 6)	IC50 (hERG channel; Table 7)	IC50 (hERG channel; Table 6)
Oc1ccc(Cl)c(Cl)c1C(O)c1ccncc1 (single isomer, unassigned) [Compound 34, 3,4-dichloro-2-(hydroxy(pyridin-4-yl)methyl)phenol]	–	< 30 µM	–	> 30 µM
Oc1ccc(Cl)c(Cl)c1C(O)c1ccncc1 (stereo not drawn) [Compound 29, 3,4-dichloro-2-[hydroxy(pyridin-4-yl)methyl]phenol]	–	< 1 µM	–	> 30 µM
CC(=O)NC(c1ccncc1)c1c(O)ccc(Cl)c1Cl (single isomer, unassigned) [Compound 38, N-((2,3-dichloro-6-hydroxyphenyl)(pyridin-4-yl)methyl)acetamide]	–	< 30 µM	–	> 30 µM
Nc1ccc(Cc2cc(Cl)c(Cl)cc2O)cn1 [Compound 8, 2-[(6-aminopyridin-3-yl)methyl]-4,5-dichlorophenol]	–	< 10 µM	–	< 30 µM
Oc1cc(Cl)c(Cl)cc1C(O)c1ccncc1 (stereo not drawn) [Compound 27, 4,5-dichloro-2-[hydroxy(pyridin-4-yl)methyl]phenol]	–	< 10 µM	–	> 30 µM
Nc1ccc(C(O)c2c(O)ccc(Cl)c2Cl)cn1 (stereo not drawn) [Compound 40, 2-[(6-aminopyridin-3-yl)(hydroxy)methyl]-3,4-dichlorophenol]	–	< 1 µM	–	< 30 µM
Nc1cc(C(O)c2c(O)ccc(Cl)c2Cl)ccn1 (stereo not drawn) [Compound 36, 2-[(2-aminopyridin-4-yl)(hydroxy)methyl]-3,4-dichlorophenol]	–	< 1 µM	–	> 30 µM
NCc1cc(C(O)c2c(O)ccc(Cl)c2Cl)ccn1 (stereo not drawn) [Compound 28, 2-[[2-(aminomethyl)pyridin-4-yl](hydroxy)methyl]-3,4-dichlorophenol]	–	< 1 µM	–	> 30 µM
NC(c1ccncc1)c1c(O)ccc2ccccc12 (stereo not drawn) [Compound 17, 1-[amino(pyridin-4-yl)methyl]naphthalen-2-ol]	–	< 10 µM	–	< 30 µM
CC(=O)CC(c1ccncc1)c1c(O)ccc2ccccc12 (stereo not drawn) [Compound 18]	–	< 10 µM	–	> 30 µM
